Experiments:
[1] = system: hC6A; conditions: ref [9] (supplement list); cited from earlier work
Text: (§1) Supplement pone.0146846.s004.docx, table 1 | column: Functional assay

[2] = system: 22RV1 / PC-3; conditions: endogenous; ref [9] (supplement list); cited from earlier work
Text: as §1

[3] = system: GPRC6A; conditions: GPRC6A-expressing cell lines or mouse pancreatic islets; ref [29]; cited from earlier work
Text: (§2) The involvement of GPRC6A has been shown by transfection of receptor-specific siRNA, receptor blockade with a polyclonal antibody and, in the case of the islets, using tissue from KO mice.

[4] = system: GPRC6A-expressing cell lines or mouse pancreatic islets; conditions: ref [31]; cited from earlier work
Text: as §2

[5] = system: INS-1(832) cells; assay: Label-free cell impedance, INS-1(832) cells; assay type: cell-based, rat; conditions: S1 Table
Outline: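 INS-1(832) cells seeded at 2 x 10^4/well, cultured 48 h in 11.1 mM glucose RPMI, then switched to EBSS containing 2.8 mM glucose for 2 h. Compound added in the same buffer; impedance captured and analysed as for HEK293 cells.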

[6] = molecular target: T1, mGPRC6A (mouse GPRC6A) (Mus musculus, UniProt Q8K4Z6); assay: Ca^2+i mobilisation, FlpIn-TREx-HEK293-mGPRC6A cells; assay type: cell-based
T1 sequence (Q8K4Z6 21-928): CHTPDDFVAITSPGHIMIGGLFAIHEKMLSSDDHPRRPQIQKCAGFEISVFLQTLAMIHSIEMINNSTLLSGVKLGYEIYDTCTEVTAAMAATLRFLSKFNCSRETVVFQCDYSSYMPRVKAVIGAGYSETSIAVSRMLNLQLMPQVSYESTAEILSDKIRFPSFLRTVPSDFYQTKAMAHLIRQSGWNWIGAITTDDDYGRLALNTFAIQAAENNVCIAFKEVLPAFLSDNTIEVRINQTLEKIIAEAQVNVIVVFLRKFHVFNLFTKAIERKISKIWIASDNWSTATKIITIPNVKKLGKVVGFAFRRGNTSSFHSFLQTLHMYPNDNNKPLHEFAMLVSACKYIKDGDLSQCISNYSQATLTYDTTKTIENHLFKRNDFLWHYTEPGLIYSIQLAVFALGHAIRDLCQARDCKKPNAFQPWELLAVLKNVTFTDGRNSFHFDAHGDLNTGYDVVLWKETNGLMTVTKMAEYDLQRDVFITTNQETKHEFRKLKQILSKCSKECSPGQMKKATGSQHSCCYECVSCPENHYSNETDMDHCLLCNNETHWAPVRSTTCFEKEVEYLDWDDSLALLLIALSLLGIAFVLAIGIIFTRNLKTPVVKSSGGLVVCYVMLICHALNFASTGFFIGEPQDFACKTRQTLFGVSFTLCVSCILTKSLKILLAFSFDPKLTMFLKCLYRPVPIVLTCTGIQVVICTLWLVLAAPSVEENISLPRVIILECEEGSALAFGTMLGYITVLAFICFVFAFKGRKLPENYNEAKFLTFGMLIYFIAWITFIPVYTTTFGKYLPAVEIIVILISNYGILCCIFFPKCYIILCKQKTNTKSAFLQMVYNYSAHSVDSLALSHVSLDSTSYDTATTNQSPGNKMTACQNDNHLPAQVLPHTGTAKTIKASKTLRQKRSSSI
Outline: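 Tetracycline-induced FlpIn-TREx-HEK293 cells expressing mouse GPRC6A, transiently transfected with Gαq or GαqG66D and serum-starved overnight, were loaded with 1 μM Fluo-4-AM 1 h at 37 °C in pH 7.4 buffer with probenecid.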

## OCN: osteoblast-derived peptide, osteocalcin; variant not specified at the place (YLYQWLGAPVPYPDPLEPRREVCELNPDCDELADHIGFQEAYRRFYGPV; UniProt P02818 52-100, looked up)
[1]
  pERK1/2 response: pERK1/2 – response to Ca^2+, ZnCl2, OCN, Arginine, Testosterone-BSA
[2]
  PSA, Runx2 expression response: pERK1/2 – response to Ca^2+, ZnCl2, OCN, Arginine, Testosterone-BSA Proliferation – response to Ca^2+, OCN PSA, Runx2 expression – response to OCN, Arg, R1881 Chemotaxis (22RV1) – response to Ca^2+, OCN
  Proliferation response: pERK1/2 – response to Ca^2+, ZnCl2, OCN, Arginine, Testosterone-BSA Proliferation – response to Ca^2+, OCN PSA, Runx2 expression – response to OCN, Arg, R1881 Chemotaxis (22RV1) – response to Ca^2+, OCN
  pERK1/2 response: pERK1/2 – response to Ca^2+, ZnCl2, OCN, Arginine, Testosterone-BSA Proliferation – response to Ca^2+, OCN PSA, Runx2 expression – response to OCN, Arg, R1881 Chemotaxis (22RV1) – response to Ca^2+, OCN
[3]
  intracellular calcium mobilisation: cause intracellular calcium mobilisation
[4]
  β-cell proliferation: increased β-cell proliferation
[5]
  xCELLigence response (summary): xCELLigence – response to OCN

## NCCC[C@H](N)C(=O)O [L-ornithine]
[6]; calcium mobilisation and inositol phosphate accumulation, Discussion
  potency at murine GPRC6A (calcium and inositol phosphate, words): most potent agonists
[6]; co-expressing GαqG66D, Fig 1D
  rank order of potency, Ca^2+ mobilisation: L-ornithine > L-arginine = L-lysine
[6]; co-expressing GαqG66D, Fluo-4, normalised to 100 μM ATP, pEC50 ± SEM, printed in picture Fig 1D, read-out: pEC50, Ca^2+ mobilisation (converted)
  EC50: 3.16 µM

Reference: article PMC4718634, “Murine GPRC6A Mediates Cellular Responses to L-Amino Acids, but Not Osteocalcin Variants” (PLoS ONE, 2016)
